The values that follow come from patent publication US6300501A, “Histidine-(N-benzyl glycinamide) inhibitors of protein farnesyl transferase” (Warner-Lambert Company, priority 1998, dated 2001).

The term IC50 denotes the concentration needed to halve the response being measured.

Read-outs that look alike come from different tables or passages of the source.

Test [1] has as its system H61 cells: NIH transformed 3T3 H-ras cells. In words: Clonogenic assay (6 well plates, soft agar). Format: cell-based. The method, then: Clonoaenic Assay (6 well lates)
Sometime previous to setting up an actual test:
1. Make up 1.5% Bacto Agar in Milli-Q water and autoclave.
2. Make up 500 mL 2× DMEM-HG without phenol red by combining the following:
1 bottle DMEM base powder (Sigma D-5030)
Adjust pH to 7.1 with HCL; filter sterilize.
1. Set up makeshift water bath (beaker of water with thermometer, on hot plate) in the hood. Keep water temperature between 37° C. to 43° C.
2. […] 1.5% Bacto Agar for approximately 2 minutes on high, or until completely melted. Then let it cool somewhat before using it. (You can keep it from resolidifying by setting the bottle on the hot plate.) […]
3. Bottom Layer (0.6% agar) Top Layer (0.3% agar)
20% calf serum 20% calf serum
40% Bacto Agar (1.5%) 20% Bacto Agar (1.5%)
Depending on the volume of each layer needed, use either 50 mL conical tubes or 200 mL turnip tubes which can be floated in the "water bath".
4. Add 1 mL of bottom layer agar/medium to each well: deliver 1 mL warm agar/medium to a well; then using the tip of the pipet, spread the agar/medium around to completely cover the bottom. Repeat with next well.
5. Allow the plates to set at room temperature for about 5 minutes until the bottom layer solidifies.
6. Label sterile Falcon 2054 (12×75 mm) tubes and add appropriate volume of drug solutions into them.
7. Aliquot 4 AL of DMSO or drug solution per 1 mL of agar/medium to appropriate tubes; then add the agar/medium/cells to each tube. Always add 1 mL more than will actually be needed. Mix up and down in the pipet (gently); then deliver 1 mL to the center of each well. The upper layer is less viscous, so it will generally spread out over the bottom layer unaided. If necessary, rotate the plane of the plate gently to spread the top layer evenly over the bottom layer.
8. Let plates set for 5 or 10 minutes at room temperature to solidify, then put into 5% CO2, 37° C. incubator.
9. On Day 13, add 0.5 mL of INT (tetrazolium 1 mg/mL in Milli-Q H2 O, filter sterilized) and return plates to incubator.

Test [2] has as its target T1, SF9 affinity purified rat farnesyl protein transferase (Rattus norvegicus, UniProt Q02293+Q04631).
T1 construct: made in house; host or cells: Sf9 insect cells (baculovirus system inferred from b7)
In words: PFT inhibitory activity (radiolabeled farnesyl pyrophosphate, streptavidin bead assay). It is filed as biochemical. The method, then: The protein:farnesyl transferase (PFT) or farnesyl protein transferase (FPT) inhibitory activity of compounds of the present invention were assayed in HEPES buffer (pH 7.4) containing 5 mM potassium phosphate and 20 μM ZnCl2. The solution also contained 5 mM DTT (dithiothreitol), 5 mM MgCl2, and 0.1% PEG 8000. Assays were performed in 96 well plates (Wallec) and employed solutions composed of varying concentrations of a compound of the present invention in 100% DMSO (dimethylsulfoxide). Upon addition of both substrates, radiolabeled farnesyl pyrophosphate ([1^3 H], specific activity 15-30 Ci/mmol, final concentration 134 nM) and (biotinyl)-Ahe-Thr-Lys-Cys-Val-Ile-Met ([3aS[3a alpha, 4 beta, 6a alpha]-hexahydro-2-oxo-1H-thieno[3,4-d]imidazole-5-pentanoic acid]-[7-aminoheptanoic acid]-Thr-Lys-Cys-Val-Ile-Met) (Ahe is 7-aminoheptanoic acid, Thr is threonine, Lys is lysine, Cys is cysteine, Val is valine, Ile is isoleucine and Met is methionine) (final concentration 0.2 μM), the enzyme reaction was started by addition of SF9 affinity purified rat farnesyl protein transferase. After incubation at 30° C. for 30 minutes, the reaction was terminated by diluting the reaction 2.5-fold with a stop buffer containing 1.5 M magnesium acetate, 0.2 M H3 PO4, 0.5% BSA (bovine serum albumin), and strepavidin beads (Amersham) at a concentration of 1.3 mg/mL. After allowing the plate to settle for 30 minutes at room temperature, radioactivity was quantitated on a microBeta counter (Model 1450, Wallec). The assay was also carried out without 5 mM potassium phosphate.

The subject of test [3] is ras farnesylation in ras-transformed cells. In words: Gel shift assay. The conditions noted are these: for minimal effective concentration: read-out: Gel Shift (μM) MED (minimal effective dose to observe inhibition of ras farnesylation). It is filed as cell-based. The method, then: Twenty-four hours after planting 2×10^6 ras-transformed cells per treatment condition, the farnesylation inhibitor is added at varying concentrations. Following an 18-hour incubation period, cells are lysed in phosphate-buffered saline containing 1% Triton X-100, 0.5% sodium deoxycholate, and 0.1% SDS (sodium dodecyl sulfate), pH 7.4 in the presence of several protease inhibitors (PMSF (phenylmethylsulfonylfluoride), antipain, leupeptin, pepstatin A, and aprotinin all at 1 μg/mL). Ras protein is immunoprecipitated from the supernatants by the addition of 3 μg v-H-ras Ab-2 (Y13-259 antibody from Oncogene Science). After overnight immunoprecipitation, 30 μL of a 50% protein G-Sepharose slurry (Pharmacia) is added followed by 45-minute incubation. Pellets are resuspended in 2× tris-glycine loading buffer (Novex) containing 5% β-mercaptoethanol and then denatured by 5 minutes boiling prior to electrophoresis on 14% Tris-glycine SDS gels. Using Western transfer techniques, proteins are transferred to nitrocellulose membranes followed by blocking in blocking buffer. Upon overnight incubation with primary antibody (pan-ras Ab-2 from Oncogene Science), an antimouse HRP (horse radish peroxidase) conjugate secondary antibody (Amersham) is employed for detection of the ras protein. Blots are developed using ECL(enhanced chemiluminescence) techniques (Amersham).

Setting [4] is: colonies counted after Day 13, read-out: Clonogenic Assay IC50.
The mark [5] stands for this setting: HEPES buffer pH 7.4, without 5 mM potassium phosphate, read-out: IC50 (μM) Hepes.
[6] abbreviates: HEPES buffer pH 7.4 containing 5 mM potassium phosphate, read-out: IC50 (μM) 5 mM K3 PO4 -2.
[7] abbreviates: ras-transformed cells, 18-hour incubation.
Where [8] appears, read: 312 h, colonies counted after Day 13, read-out: Clonogenic Assay IC50.

T1 sequence (Q02293 whole entry, one chain of several): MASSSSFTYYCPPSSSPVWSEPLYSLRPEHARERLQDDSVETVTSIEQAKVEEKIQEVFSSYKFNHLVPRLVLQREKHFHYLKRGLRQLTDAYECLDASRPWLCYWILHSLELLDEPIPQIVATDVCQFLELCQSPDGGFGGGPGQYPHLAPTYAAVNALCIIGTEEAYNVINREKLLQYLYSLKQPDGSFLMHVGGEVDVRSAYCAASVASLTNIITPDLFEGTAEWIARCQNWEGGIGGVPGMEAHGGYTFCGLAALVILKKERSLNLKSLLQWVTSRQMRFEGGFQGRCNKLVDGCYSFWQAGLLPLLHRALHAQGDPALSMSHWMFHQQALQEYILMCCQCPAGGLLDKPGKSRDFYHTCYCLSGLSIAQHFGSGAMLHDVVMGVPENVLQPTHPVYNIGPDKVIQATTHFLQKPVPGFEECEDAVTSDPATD

For the molecule `CC(CNC(=O)CN(Cc1ccc(OCc2ccncc2)cc1)C(=O)[C@H](Cc1c[nH]cn1)NC(=O)OCc1ccccc1)c1ccccc1` (stereo partly drawn) [Example 34, (S)-(2-(1H-Imidazole-4-yl)-1-{[(2-phenyl-propyl-carbamoyl)-methyl]-[4-(pyridin-4-ylmethoxy)-benzyl]-carbamoyl}-ethyl)-carbamic Acid Benzyl Aster], the half-maximal inhibitory concentration (IC50) in test [1] (setting [4]) was 0.14 µM; in test [2] (setting [5]), 0.097 µM; in test [2] (setting [6]), 0.002 µM. Also, the minimal effective concentration in test [3] (setting [7]) was 0.05 µM.
For `COc1cccc(CN(CC(=O)NCC(C)c2ccccc2)C(=O)[C@H](Cc2c[nH]cn2)NC(=O)OCc2ccccc2)c1` (stereo partly drawn) [Example 35, (S)-(2-(1H-Imidazole-4-yl)-1-{(3-methoxy-benzyl)-[(2-phenyl-propylcarbamoyl)-methyl]-carbamoyl}-ethyl)-carbamic Acid Benzyl Ester], the values for the IC50 in test [1] (setting [8]), in test [2] (setting [5]) and in test [2] (setting [6]) were greater than 1 µM, 2.1 µM and 0.009 µM, respectively. The minimal effective concentration in test [3] (setting [7]) came to 0.2 µM.
On the same counts, the results for `CN(Cc1ccccc1)C(=O)N[C@@H](Cc1c[nH]cn1)C(=O)N(CC(=O)NCC(C)(C)c1ccccc1)Cc1ccc(OCc2ccccc2)cc1` [Example 41, (S)-2-(3-Benzyl-3-methyl-ureido)-N-(4-benzyloxy-benzyl)-3-(1H-imidazole-4-yl)-N-[(2-methyl-2-phenyl-propylcarbamoyl)-methyl]-propionamide] are 0.04 µM, 0.009 µM, 0.004 µM and 0.05 µM.
For `O=C(CN(Cc1ccc(OCc2ccccc2)cc1)C(=O)[C@H](Cc1c[nH]cn1)NC(=O)OCc1ccccc1)NCC(c1ccccc1)c1ccccc1` [Example 5, (S)-[1-[(4-Benzyloxy-benzyl)-[(2,2-diphenyl-ethylcarbamoyl)-methyl]-carbamoyl]-2-(1H-imidazole-4-yl)-ethvl]-carbamic Acid Benzyl Ester], the IC50 in test [1] (average obtained by additional tests, read-out: Clonogenic Assay IC50 (μM), number in parentheses) came out at 2.5 µM; in test [1] (setting [4]), 0.71 µM; in test [2] (setting [5]) it was 1.73 µM; in test [2] (setting [6]) it was 0.038 µM; in test [2] (without 5 mM potassium phosphate, average obtained by additional tests, read-out: IC50 (μM) Hepes, number in parentheses), 1.6 µM. Also, the “Gel Shift (μM) MED, number in parentheses” value in test [3] (average obtained by additional tests) stood at 0.05 µM. In addition, the minimal effective concentration in test [3] (setting [7]) was found to be 0.2 µM.
For the molecule `CC(C)(CNC(=O)CN(Cc1ccc(Cl)cc1)C(=O)[C@H](Cc1c[nH]cn1)NC(=O)OCc1ccccc1)c1ccccc1` [Example 31, (S)-[1-{(4-Chloro-benzyl)-[(2-methyl-2-phenyl-propylcarbamoyl)-methyl]-carbamoyl}-2-(1H-imidazole-4-yl)-ethyl]-carbamic Acid Benzyl Ester], the values for the IC50 in test [1] (setting [8]), in test [2] (setting [5]) and in test [2] (setting [6]) were greater than 1 µM, 0.52 µM and 0.014 µM, respectively. In addition, the minimal effective concentration in test [3] (setting [7]) was 0.1 µM.
On the same counts, the results for `CC(C)(CNC(=O)CN(Cc1ccc(-c2ccccc2)cc1)C(=O)[C@H](Cc1c[nH]cn1)NC(=O)OCc1ccccc1)c1ccccc1` [Example 52, (S)-[1-{Biphenyl-4-ylmethyl-[(2-methyl-2-phenyl-propylcarbamoyl)-methyl]-carbamoyl}-2-(1H-imidazole-4-yl)-ethyl]-carbamic Acid Benzyl Ester] are 0.52 µM, 0.48 µM, 0.004 µM and 0.05 µM.
On the same counts, the results for `CC(C)(CNC(=O)CN(Cc1ccc(OCc2ccncc2)cc1)C(=O)[C@H](Cc1c[nH]cn1)NC(=O)OCc1ccccc1)c1ccccc1` [Example 49, (S)-(2-(1H-Imidazole-4-yl)-1-{[(2-methyl-2-phenyl-propylcarbamoyl)-methyl]-[4-(pyridin-4-ylmethoxy)-benzyl]-carbamoyl}-ethyl)-carbamic Acid Benzyl Ester] are 0.1 µM, 0.06 µM, 0.009 µM and 0.05 µM.
Take `C[C@H](Cc1ccccc1)NC(=O)CN(Cc1ccc(OCc2ccccc2)cc1)C(=O)[C@H](Cc1c[nH]cn1)NC(=O)OCc1ccccc1` [Example 10]: the figures for the IC50 in test [1] (setting [4]), in test [2] (setting [5]) and in test [2] (setting [6]) were 0.71 µM, 0.58 µM and 0.018 µM, respectively. The “Gel Shift (μM) MED (minimal effective dose to observe inhibition of ras farnesylation)” value in test [3] (setting [7]) was in the range of 0.01 to 0.05 µM.
Take `O=C(CN(Cc1ccc(OCc2ccccc2)cc1)C(=O)[C@H](Cc1cnc[nH]1)NC(=O)OCc1ccccc1)NCC(O)c1ccccc1` (stereo partly drawn) [Example 14, (S)-[1-{(4-Benzyloxy-benzyl)-[(2-hydroxy-2-phenyl-ethylcarbamoyl)-methyl]-carbamoyl}-2-(3H-imidazole-4-yl)-ethyl]-carbamic Acid Benzyl Ester]: the IC50 in test [1] (setting [8]) is greater than 1 µM; in test [2] (setting [5]), 1.6 µM; in test [2] (setting [6]), 0.066 µM. In addition, the minimal effective concentration in test [3] (setting [7]) came out at 0.05 µM.
On the same counts, the results for `CC(CNC(=O)CN(Cc1cccc(Cl)c1)C(=O)[C@H](Cc1c[nH]cn1)NC(=O)OCc1ccccc1)c1ccccc1` (stereo partly drawn) [Example 30, (S)-[1-{(3-Chloro-benzyl)-[(2-phenyl-propylcarbamoyl)-methyl]-carbamoyl}-2-(1H-imidazole-4-yl)-ethyl]-carbamic Acid Benzyl Ester] are greater than 1 µM, 0.78 µM, 0.016 µM and 0.1 µM.
Turning to `O=C(CN(Cc1ccc(OCc2ccccc2)cc1)C(=O)[C@H](Cc1c[nH]cn1)NC(=O)OCc1ccccc1)NCC(c1ccccc1)c1ccccc1Cl` (stereo partly drawn) [Example 24, (S)-[1-((4-Benzyloxy-benzyl)-{[2-(2-chloro-phenyl)-2-phenyl-ethylcarbamoyl]-methyl}-carbamoyl)-2-(1H-imidazole-4-yl)-ethyl]-carbamic Acid Benzyl Ester], the IC50 in test [1] (setting [8]) stood at 0.82 µM; in test [2] (setting [5]) it was 0.2 µM; in test [2] (setting [6]) it was 0.014 µM. In addition, in test [3] (setting [7]), the minimal effective concentration was 0.2 µM.
`CC(CNC(=O)CN(Cc1ccc(F)cc1)C(=O)[C@H](Cc1c[nH]cn1)NC(=O)OCc1ccccc1)c1ccccc1` (stereo partly drawn) [Example 18, (S)-[1-{(4-Fluoro-benzyl)-[(2-phenyl-propylcarbamoyl)-methyl]-carbamoyl}-2-(1H-imidazole-4-yl)-ethyl]-carbamic Acid Benzyl Ester]: the 50% inhibitory concentration (IC50) was greater than 1 µM in test [1] (setting [8]), 2.8 µM in test [2] (setting [5]) and 0.061 µM in test [2] (setting [6]). Further, the minimal effective concentration in test [3] (setting [7]) turned out to be 0.2 µM.
